From publication PMC7195589 (Journal of Ginseng Research, 2019)

Each molecule was assayed against muscle-type creatine kinase (CK-MM) (Homo sapiens, UniProt P06732) (assay: BLI direct binding response at […]).
Sequence of muscle-type creatine kinase (CK-MM) (P06732 whole entry): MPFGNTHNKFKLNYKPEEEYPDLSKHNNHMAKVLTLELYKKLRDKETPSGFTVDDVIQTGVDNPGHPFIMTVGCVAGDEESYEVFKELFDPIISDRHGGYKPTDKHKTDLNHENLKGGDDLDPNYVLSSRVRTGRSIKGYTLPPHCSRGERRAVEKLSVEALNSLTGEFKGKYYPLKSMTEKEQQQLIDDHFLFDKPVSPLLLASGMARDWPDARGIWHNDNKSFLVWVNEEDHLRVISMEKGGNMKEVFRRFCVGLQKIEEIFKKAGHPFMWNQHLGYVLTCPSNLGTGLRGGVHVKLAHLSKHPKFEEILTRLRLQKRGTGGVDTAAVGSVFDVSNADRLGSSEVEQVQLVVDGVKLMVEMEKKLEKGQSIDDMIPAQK

| Compound | BLI direct binding response at 300 uM (no KD) |
| --- | --- |
| CC(C)=CCC[C@](C)(O)[C@H]1CC[C@]2(C)[C@@H]1[C@H](O)C[C@@H]1[C@@]3(C)CC[C@H](O)C(C)(C)[C@@H]3[C@@H](O)C[C@]12C [PPT, 20(S)-protopanaxatriol] | F1, Rh2, K, and their aglycones (PPT and PPD) displayed gradually direct interaction with CK-MM |
| CC(C)=CCC[C@](C)(O[C@@H]1O[C@H](CO)[C@@H](O)[C@H](O)[C@H]1O)[C@H]1CC[C@]2(C)[C@@H]1[C@H](O)C[C@@H]1[C@@]3(C)CC[C@H](O)C(C)(C)[C@@H]3CC[C@]12C [GK, ginsenoside compound K] | F1, Rh2, K, and their aglycones (PPT and PPD) displayed gradually direct interaction with CK-MM |
| CC(C)=CCC[C@](C)(O)[C@H]1CC[C@]2(C)[C@@H]1[C@H](O)C[C@@H]1[C@@]3(C)CC[C@H](O[C@@H]4O[C@H](CO)[C@@H](O)[C@H](O)[C@H]4O)C(C)(C)[C@@H]3CC[C@]12C [Rh2, ginsenoside Rh2] | F1, Rh2, K, and their aglycones (PPT and PPD) displayed gradually direct interaction with CK-MM |
